Test results as given in the NIST ThermoML archive (doi:10.1016/j.fluid.2008.03.004).

Experiments:
[1] = 101 kPa, Liquid; for speed of sound: Sing-around technique in a fixed-path interferometer
[2] = xn = mol fraction of the nth substance listed; details: 101 kPa, Liquid; for speed of sound: Sing-around technique in a fixed-path interferometer

COC(C)(C)C [2-methoxy-2-methylpropane]
[1]
Details | mass density [kg/m3] | speed of sound [m/s]
288.15 K | 744.861 | 1083.4
290.65 K | 742.259 | 1071.6
293.15 K | 739.654 | 1060
295.65 K | 737.036 | 1048.5
298.15 K | 734.406 | 1036.9
300.65 K | 731.766 | 1025.4
303.15 K | 729.112 | 1013.9
305.65 K | 726.444 | 1002.4
308.15 K | 723.763 | 990.99
310.65 K | 721.069 | 979.62
313.15 K | 718.357 | 968.16
315.65 K | 715.636 | 956.8
318.15 K | 712.897 | 945.54
320.65 K | 710.141 | 934.24
323.15 K | 707.381 | 922.97

COC(C)(C)C [2-methoxy-2-methylpropane] + Cc1cccc(C)c1
[2], x1 = 1
Details | mass density [kg/m3] | speed of sound [m/s]
288.15 K | 744.861 | 1083.4
290.65 K | 742.259 | 1071.6
293.15 K | 739.654 | 1060
295.65 K | 737.036 | 1048.5
298.15 K | 734.406 | 1036.9
300.65 K | 731.766 | 1025.4
303.15 K | 729.112 | 1013.9
305.65 K | 726.444 | 1002.4
308.15 K | 723.763 | 990.99
310.65 K | 721.069 | 979.62
313.15 K | 718.357 | 968.16
315.65 K | 715.636 | 956.8
318.15 K | 712.897 | 945.54
320.65 K | 710.141 | 934.24
323.15 K | 707.381 | 922.97

Cc1ccccc1C [1,2-dimethylbenzene]
[1]
Details | mass density [kg/m3] | speed of sound [m/s]
288.15 K | 883.36 | 1381.3
290.65 K | 881.265 | 1371.8
293.15 K | 879.168 | 1362.2
295.65 K | 877.069 | 1351.8
298.15 K | 874.968 | 1341.5
300.65 K | 872.865 | 1331.2
303.15 K | 870.759 | 1321
305.65 K | 868.65 | 1310.8
308.15 K | 866.538 | 1300.7
310.65 K | 864.422 | 1290.6
313.15 K | 862.302 | 1280.6
315.65 K | 860.179 | 1270.5
318.15 K | 858.054 | 1260.6
320.65 K | 855.927 | 1250.7
323.15 K | 853.803 | 1240.9

Cc1ccc(C)cc1 [1,4-dimethylbenzene] + COC(C)(C)C
[2], x2 = 0
Details | mass density [kg/m3] | speed of sound [m/s]
288.15 K | 865.354 | 1347.9
290.65 K | 863.184 | 1336.9
293.15 K | 861.015 | 1326.1
295.65 K | 858.846 | 1315.6
298.15 K | 856.675 | 1305.4
300.65 K | 854.501 | 1295.3
303.15 K | 852.326 | 1285.4
305.65 K | 850.148 | 1275.6
308.15 K | 847.969 | 1266.1
310.65 K | 845.784 | 1256.4
313.15 K | 843.599 | 1246.8
315.65 K | 841.41 | 1237.6
318.15 K | 839.22 | 1228.1
320.65 K | 837.031 | 1220.5
323.15 K | 834.849 | 1211

COC(C)(C)C [2-methoxy-2-methylpropane] + Cc1ccccc1C
[2], x1 = 1
Details | mass density [kg/m3] | speed of sound [m/s]
288.15 K | 744.861 | 1083.4
290.65 K | 742.259 | 1071.6
293.15 K | 739.654 | 1060
295.65 K | 737.036 | 1048.5
298.15 K | 734.406 | 1036.9
300.65 K | 731.766 | 1025.4
303.15 K | 729.112 | 1013.9
305.65 K | 726.444 | 1002.4
308.15 K | 723.763 | 990.99
310.65 K | 721.069 | 979.62
313.15 K | 718.357 | 968.16
315.65 K | 715.636 | 956.8
318.15 K | 712.897 | 945.54
320.65 K | 710.141 | 934.24
323.15 K | 707.381 | 922.97

Cc1ccccc1C [1,2-dimethylbenzene] + CCOC(C)(C)C
[2], x2 = 0
Details | mass density [kg/m3] | speed of sound [m/s]
288.15 K | 883.36 | 1381.3
290.65 K | 881.265 | 1371.8
293.15 K | 879.168 | 1362.2
295.65 K | 877.069 | 1351.8
298.15 K | 874.968 | 1341.5
300.65 K | 872.865 | 1331.2
303.15 K | 870.759 | 1321
305.65 K | 868.65 | 1310.8
308.15 K | 866.538 | 1300.7
310.65 K | 864.422 | 1290.6
313.15 K | 862.302 | 1280.6
315.65 K | 860.179 | 1270.5
318.15 K | 858.054 | 1260.6
320.65 K | 855.927 | 1250.7
323.15 K | 853.803 | 1240.9
